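Grown in 96-well plates, cells were treated for 48 hours with each compound at five concentrations. Insufficient inhibition: endpoint recorded as highest concentration tested. The concentration for 50% growth inhibition is given as GI50. At the TGI there is no net growth.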
How the values were obtained:
Assay in all cases: NCI-60 cell line screen, 48 h
HT29 colon = test system: HT29 colon
SK-MEL-2 melanoma = test system: SK-MEL-2 melanoma
SNB-75 CNS = test system: SNB-75 CNS
SK-OV-3 ovarian = test system: SK-OV-3 ovarian
MOLT-4 leukemia = test system: MOLT-4 leukemia
MDA-MB-231 breast = test system: MDA-MB-231 breast
RXF 393 renal = test system: RXF 393 renal
UO-31 renal = test system: UO-31 renal
SR leukemia = test system: SR leukemia
OVCAR-5 ovarian = test system: OVCAR-5 ovarian
SF-539 CNS = test system: SF-539 CNS
HS 578T breast = test system: HS 578T breast
COLO 205 colon = test system: COLO 205 colon
NCI/ADR-RES ovarian = test system: NCI/ADR-RES ovarian
MALME-3M melanoma = test system: MALME-3M melanoma
HL-60(TB) leukemia = test system: HL-60(TB) leukemia
SF-268 CNS = test system: SF-268 CNS
HOP-62 NSCLC = test system: HOP-62 NSCLC
HCC-2998 colon = test system: HCC-2998 colon
IGROV1 ovarian = test system: IGROV1 ovarian
UACC-62 melanoma = test system: UACC-62 melanoma
T-47D breast = test system: T-47D breast
U251 CNS = test system: U251 CNS
SW-620 colon = test system: SW-620 colon
HCT-116 colon = test system: HCT-116 colon
NCI-H23 lung = test system: NCI-H23 lung
MDA-MB-435 = test system: MDA-MB-435
CCRF-CEM leukemia = test system: CCRF-CEM leukemia
OVCAR-4 ovarian = test system: OVCAR-4 ovarian
TK-10 renal = test system: TK-10 renal
SNB-19 CNS = test system: SNB-19 CNS
BT-549 breast = test system: BT-549 breast
ACHN renal = test system: ACHN renal
NCI-H226 lung = test system: NCI-H226 lung
A549 NSCLC = test system: A549 NSCLC
OVCAR-3 ovarian = test system: OVCAR-3 ovarian
786-0 renal = test system: 786-0 renal
PC-3 prostate = test system: PC-3 prostate
NCI-H460 lung = test system: NCI-H460 lung
NCI-H522 lung = test system: NCI-H522 lung
CAKI-1 renal = test system: CAKI-1 renal
SF-295 CNS = test system: SF-295 CNS
SK-MEL-5 melanoma = test system: SK-MEL-5 melanoma
SN12C renal = test system: SN12C renal
DU-145 prostate = test system: DU-145 prostate
KM12 colon = test system: KM12 colon
HOP-92 NSCLC = test system: HOP-92 NSCLC
HCT-15 colon = test system: HCT-15 colon
MCF7 breast = test system: MCF7 breast
K-562 leukemia = test system: K-562 leukemia
UACC-257 melanoma = test system: UACC-257 melanoma
RPMI-8226 leukemia = test system: RPMI-8226 leukemia
OVCAR-8 ovarian = test system: OVCAR-8 ovarian
A498 renal = test system: A498 renal
M14 melanoma = test system: M14 melanoma
SK-MEL-28 melanoma = test system: SK-MEL-28 melanoma
LOX IMVI melanoma = test system: LOX IMVI melanoma

Cn1c(-c2ccncc2)c(-c2ccc(F)cc2)c2ncccc21
GI50 (HT29 colon): > 25 µM | TGI (HT29 colon): > 25 µM | GI50 (SK-MEL-2 melanoma): > 25 µM | TGI (SK-MEL-2 melanoma): > 25 µM | GI50 (SNB-75 CNS): > 25 µM | TGI (SNB-75 CNS): > 25 µM | GI50 (SK-OV-3 ovarian): > 25 µM | TGI (SK-OV-3 ovarian): > 25 µM | GI50 (MOLT-4 leukemia): > 25 µM | TGI (MOLT-4 leukemia): > 25 µM | GI50 (MDA-MB-231 breast): > 25 µM | TGI (MDA-MB-231 breast): > 25 µM | GI50 (RXF 393 renal): > 25 µM | TGI (RXF 393 renal): > 25 µM | GI50 (UO-31 renal): 10.8 µM | TGI (UO-31 renal): > 25 µM | GI50 (SR leukemia): > 25 µM | TGI (SR leukemia): > 25 µM | GI50 (OVCAR-5 ovarian): > 25 µM | TGI (OVCAR-5 ovarian): > 25 µM | GI50 (SF-539 CNS): > 25 µM | TGI (SF-539 CNS): > 25 µM | GI50 (HS 578T breast): > 25 µM | TGI (HS 578T breast): > 25 µM | GI50 (COLO 205 colon): > 25 µM | TGI (COLO 205 colon): > 25 µM | GI50 (NCI/ADR-RES ovarian): > 25 µM | TGI (NCI/ADR-RES ovarian): > 25 µM | GI50 (MALME-3M melanoma): > 25 µM | TGI (MALME-3M melanoma): > 25 µM | GI50 (HL-60(TB) leukemia): > 25 µM | TGI (HL-60(TB) leukemia): > 25 µM | GI50 (SF-268 CNS): > 25 µM | TGI (SF-268 CNS): > 25 µM | GI50 (HOP-62 NSCLC): > 25 µM | TGI (HOP-62 NSCLC): > 25 µM | GI50 (HCC-2998 colon): > 25 µM | TGI (HCC-2998 colon): > 25 µM | GI50 (IGROV1 ovarian): > 23.1 µM | TGI (IGROV1 ovarian): > 25 µM | GI50 (UACC-62 melanoma): > 25 µM | TGI (UACC-62 melanoma): > 25 µM | GI50 (T-47D breast): > 25 µM | TGI (T-47D breast): > 25 µM | GI50 (U251 CNS): > 25 µM | TGI (U251 CNS): > 25 µM | GI50 (SW-620 colon): > 25 µM | TGI (SW-620 colon): > 25 µM | GI50 (HCT-116 colon): > 25 µM | TGI (HCT-116 colon): > 25 µM | GI50 (NCI-H23 lung): > 25 µM | TGI (NCI-H23 lung): > 25 µM | GI50 (MDA-MB-435): > 25 µM | TGI (MDA-MB-435): > 25 µM | GI50 (CCRF-CEM leukemia): > 25 µM | TGI (CCRF-CEM leukemia): > 25 µM | GI50 (OVCAR-4 ovarian): > 25 µM | TGI (OVCAR-4 ovarian): > 25 µM | GI50 (TK-10 renal): 16.4 µM | TGI (TK-10 renal): > 25 µM | GI50 (SNB-19 CNS): > 25 µM | TGI (SNB-19 CNS): > 25 µM | GI50 (BT-549 breast): > 25 µM | TGI (BT-549 breast): > 25 µM | GI50 (ACHN renal): 16.4 µM | TGI (ACHN renal): > 25 µM | GI50 (NCI-H226 lung): > 25 µM | TGI (NCI-H226 lung): > 25 µM | GI50 (A549 NSCLC): > 25 µM | TGI (A549 NSCLC): > 25 µM | GI50 (OVCAR-3 ovarian): > 25 µM | TGI (OVCAR-3 ovarian): > 25 µM | GI50 (786-0 renal): > 25 µM | TGI (786-0 renal): > 25 µM | GI50 (PC-3 prostate): > 25 µM | TGI (PC-3 prostate): > 25 µM | GI50 (NCI-H460 lung): > 25 µM | TGI (NCI-H460 lung): > 25 µM | GI50 (NCI-H522 lung): > 25 µM | TGI (NCI-H522 lung): > 25 µM | GI50 (CAKI-1 renal): > 25 µM | TGI (CAKI-1 renal): > 25 µM | GI50 (SF-295 CNS): > 25 µM | TGI (SF-295 CNS): > 25 µM | GI50 (SK-MEL-5 melanoma): > 25 µM | TGI (SK-MEL-5 melanoma): > 25 µM | GI50 (SN12C renal): > 25 µM | TGI (SN12C renal): > 25 µM | GI50 (DU-145 prostate): > 25 µM | TGI (DU-145 prostate): > 25 µM | GI50 (KM12 colon): > 25 µM | TGI (KM12 colon): > 25 µM | GI50 (HOP-92 NSCLC): 7.39 µM | TGI (HOP-92 NSCLC): > 25 µM | GI50 (HCT-15 colon): > 25 µM | TGI (HCT-15 colon): > 25 µM | GI50 (MCF7 breast): > 25 µM | TGI (MCF7 breast): > 25 µM | GI50 (K-562 leukemia): > 25 µM | TGI (K-562 leukemia): > 25 µM | GI50 (UACC-257 melanoma): > 25 µM | TGI (UACC-257 melanoma): > 25 µM | GI50 (RPMI-8226 leukemia): > 25 µM | TGI (RPMI-8226 leukemia): > 25 µM | GI50 (OVCAR-8 ovarian): > 25 µM | TGI (OVCAR-8 ovarian): > 25 µM | GI50 (A498 renal): > 14.4 µM | TGI (A498 renal): > 25 µM | GI50 (M14 melanoma): > 25 µM | TGI (M14 melanoma): > 25 µM | GI50 (SK-MEL-28 melanoma): > 25 µM | TGI (SK-MEL-28 melanoma): > 25 µM | GI50 (LOX IMVI melanoma): > 25 µM | TGI (LOX IMVI melanoma): > 25 µM

Reference: PubChem BioAssay (NCI)
